This is an account of results in patent publication US20240066057A1, “METHOD FOR TREATING PAIN USING VANADIUM COMPOUNDS” (HUNAN FANGSHENGTAI MEDICAL TECHNOLOGY CO., LTD, priority 2020, published 2024).

Test [1] concerns Kunming mice with CFA-induced inflammation. Briefly: Von Frey test (50% paw withdrawal threshold) in CFA-induced inflammatory pain mouse model. Type of test: in vivo. How it is done: 10 μL of complete Freund's adjuvant (CFA) was injected into the left hind foot of mice (♂ Kunming mice, 22 g to 40 g) to induce inflammation. 24 hours after the injection, a Von Frey test was performed to determine a pain threshold. That is, under the guidance of Dixon's Up-Down method, Von Frey fibers were used to induce the mechanical paw withdrawal of the mice, and data were collected and calculated to obtain their 50% paw withdrawal thresholds (paw withdrawal threshold or PWT for short, i.e. pain threshold). Mice were then divided into different groups, including a normal saline group, a positive control group, and a drug group, which were intraperitoneally injected with normal saline, an aspirin (acetylsalicylic acid, or ASA) solution and a solution of compound for testing respectively. A Von Frey test was then performed to monitor changes in pain threshold.
Mice were divided into three groups: a blank control group, an aspirin (ASA) group, and a drug group. In blank control group, the mice were given normal saline, deionized water or deionized water containing ≤5% DMSO at the same volume as that in the drug group. In ASA group, the mice were given the known analgesic drug ASA as the positive control for tested compounds. In drug group, the mice were given compounds for testing accordingly. Due attention was paid to observe whether the pain threshold rose, the period during which the rise was maintained and the magnitude of the rise, after the injection of a tested compound solution.

Test [2] has the same test system. Briefly: Effective concentration and plateau experiment of vanadium compounds, tail vein injection, mouse pain model. Type of test: in vivo. The conditions noted are these: for Duration / Maximum analgesic intensity (mean) / Onset time: 6 samples.
Setting [3] is: Example 11 (BEOV), intraperitoneal injection, I about 0.97 mg/kg (atomic mass of vanadium).
Where [4] appears, read: Example 6, intraperitoneal injection, D 1.9 mg/kg, S about 250 mg/kg, listed as D.
The mark [5] stands for this setting: intraperitoneal injection, conclusions of Examples 3-9.
Where [6] appears, read: intraperitoneal injection, doses as in Examples 3-9.
Where [7] appears, read: intraperitoneal injection, doses as in Examples 3-9, most of the time after onset.
[8] abbreviates: intraperitoneal injection, versus aspirin control group.
Setting [9] is: Example 12, intraperitoneal injection, J about 0.97 mg/kg (atomic mass of vanadium).
Setting [10] is: Example 13, intraperitoneal injection, K about 0.97 mg/kg (atomic mass of vanadium).
Where [11] appears, read: Plateau experiment, dose (vanadium) A5/G3 0.25, A1/G1/H1 0.49, A4/G2/H2 0.97, H3 1.9 mg/kg, 1.9 mg/kg.
[12] abbreviates: Example 5, intraperitoneal injection, C 1.9 mg/kg (atomic mass of vanadium), S about 250 mg/kg.
The mark [13] stands for this setting: Plateau experiment, dose (vanadium) A5/G3 0.25, A1/G1/H1 0.49, A4/G2/H2 0.97, H3 1.9 mg/kg, listed as A5.
The mark [14] stands for this setting: Effective concentration table, 8.2 × 10^−4 mg/kg.
Where [15] appears, read: Example 15, intraperitoneal injection, M about 0.97 mg/kg (atomic mass of vanadium).
[16] abbreviates: Example 14, intraperitoneal injection, L about 0.97 mg/kg (atomic mass of vanadium).
Setting [17] is: Plateau experiment, dose (vanadium) A5/G3 0.25, A1/G1/H1 0.49, A4/G2/H2 0.97, H3 1.9 mg/kg, listed as G2.
The mark [18] stands for this setting: Example 11 (BMOV), intraperitoneal injection, H1 about 0.97 mg/kg (atomic mass of vanadium).
Setting [19] is: Plateau experiment, dose (vanadium) A5/G3 0.25, A1/G1/H1 0.49, A4/G2/H2 0.97, H3 1.9 mg/kg, listed as H1.
Where [20] appears, read: Plateau experiment, dose (vanadium) A5/G3 0.25, A1/G1/H1 0.49, A4/G2/H2 0.97, H3 1.9 mg/kg, listed as G3.
Where [21] appears, read: Plateau experiment, dose (vanadium) A5/G3 0.25, A1/G1/H1 0.49, A4/G2/H2 0.97, H3 1.9 mg/kg, listed as A4.
Where [22] appears, read: Plateau experiment, dose (vanadium) A5/G3 0.25, A1/G1/H1 0.49, A4/G2/H2 0.97, H3 1.9 mg/kg, listed as H2.
Setting [23] is: Example 3, intraperitoneal injection, A1 0.97 mg/kg (atomic mass of vanadium), S about 250 mg/kg.
Setting [24] is: Plateau experiment, dose (vanadium) A5/G3 0.25, A1/G1/H1 0.49, A4/G2/H2 0.97, H3 1.9 mg/kg, listed as A1.

With “bis(ethylmaltolato)oxovanadium (IV) [Solution I]”, in test [1] (setting [3]), the Duration was over 60 min and the Onset time is given as 15 to 30 after injection min.

`O=S(=O)([O-])[O-].[O]=[V+2]` [Solution G, Vanadyl sulfate]: the Minimum effective dose entry in test [2] (mice) was “about 1.0×10^−3 mg/kg”. The “Blood concentration in mice equivalent to the plateau dose” value in test [2] (plateau dose 0.49 mg/kg) amounted to 140 µM.

Sodium metavanadate [Solution D]: the Duration was over 60 min in test [1] (setting [4]) and over 60 min in test [1] (Example 6, intraperitoneal injection, D 1.9 mg/kg, S about 250 mg/kg, listed as metavanadate). This compound also gave an Onset time in test [1] (setting [4]) of 0 to 15 after injection min. Also, in test [1] (setting [5]), the Analgesic effect entry was “has an analgesic effect”. Moreover, the “Time after injection at which the pain threshold returned to the baseline value” (shortened to “Time after injection”) in test [1] (setting [6]) was about 90 min. Moreover, the “Pain thresholds / analgesic intensity compared with the S (ASA, aspirin) group” value in test [1] (setting [7]) is on record as “greater than or comparable to those of the mice, boosted by the solution S, in the S group”. For the same compound, the “Effective duration compared with aspirin (ASA)” value in test [1] (setting [8]) was “longer than that of aspirin”.

On to `[O]=[V-2]12([O]C3=COC(CO)=CC3=[O+]1)[O]C1=COC(CO)=CC1=[O+]2` [Solution J, bis(kojato)oxovanadium (IV)], for which, in test [1] (setting [9]), the Duration was over 60 min and the Onset time was 15 to 30 after injection min.

In the case of “Bis(acetylacetonato)oxovanadium (IV) [Solution K]”, in test [1] (setting [10]), the Duration was over 60 min and the Onset time lay within 15 to 30 after injection min.

Regarding `Cc1occc(=O)c1[O-].Cc1occc(=O)c1[O-].[O]=[V+2]` [Solution H3, bis(maltolato)oxovanadium (IV)], in test [2] (setting [11]), the Duration is reported as at most 60 min and the “Maximum analgesic intensity (mean)” value is 0.48 g.

As for `[Na+].[Na+].[Na+].[O]=[V]([O-])([O-])[O-]` [Solution A2, Sodium orthovanadate], the Onset time in test [1] (Example 4, intraperitoneal injection, A1 0.97, A2 0.19, A3 0.097 mg/kg (atomic mass of vanadium), listed as A2) was 30 to 45 after injection min.

Take “Cis-bis(maltolato)methoxyoxovanadium (V) [Solution C]”: in test [1] (setting [12]), the Duration entry is listed as “about 60 min” and the Onset time is on record as 15 to 30 after injection min. Besides, in test [1] (setting [5]), the Analgesic effect entry is reported as “has an analgesic effect”. Further, the “Time after injection” value in test [1] (setting [6]) was found to be 90 min. Moreover, the “Pain thresholds / analgesic intensity compared with the S (ASA, aspirin) group” value in test [1] (setting [7]) is given as “comparable to those of the mice, boosted by the solution S, in the S group”. For the same compound, the “Effective duration compared with aspirin (ASA)” value in test [1] (setting [8]) is listed as “longer than that of aspirin”.

Consider `[Na+].[Na+].[Na+].[O]=[V]([O-])([O-])[O-]` [Solution A5, Sodium orthovanadate], for which, in test [2] (setting [13]), the Duration is given as over 60 min and the “Maximum analgesic intensity (mean)” value was about 0.45 g.

In test [2] (setting [14]), `O=S(=O)([O-])[O-].[O]=[V+2]` [Solution G4, Vanadyl sulfate] gave a Duration of under 60 min and an Onset time of 0 to 15 min.

In test [2] (setting [14]), `[Na+].[Na+].[Na+].[O]=[V]([O-])([O-])[O-]` [Solution A6, Sodium orthovanadate] gave a Duration of under 60 min and an Onset time of 0 to 15 min.

In test [1] (setting [15]), `O=C(O)c1ccccn1.O=C(O)c1ccccn1.[O]=[V]` [Solution M, Bis(picolinato)oxovanadium (IV)] had a Duration of over 60 min and an Onset time of 15 to 30 after injection min.

In test [1] (setting [16]), `O=C([O-])C(=O)[O-].[O]=[V+2]` [Solution L, Vanadyl oxalate] returned a Duration of over 60 min and an Onset time of 15 to 30 after injection min.

For the compound “potassium dioxo(citrato)vanadate (V) [Solution F]”, in test [1] (mouse, in vivo), the Duration is on record as over 60 min and the Onset time is listed as 15 to 30 after injection min. In test [1] (mouse, in vivo, ip), the Analgesic effect result is on record as “has an analgesic effect”; the “Effective duration compared with aspirin (ASA)” value is on record as “longer than that of aspirin”; the “Pain thresholds / analgesic intensity compared with the S (ASA, aspirin) group” value was “higher than those of the mice, boosted by the solution S, in the S group”; the “Time after injection” value was over 90 min.

With `O=S(=O)([O-])[O-].[O]=[V+2]` [Solution G2, Vanadyl sulfate], in test [2] (setting [17]), the Duration result was “no obvious difference” and the “Maximum analgesic intensity (mean)” value is listed as about 0.49 g.

In test [1] (setting [18]), `Cc1occc(=O)c1[O-].Cc1occc(=O)c1[O-].[O]=[V+2]` [Solution H1, bis(maltolato)oxovanadium (IV)] showed a Duration of over 60 min and an Onset time of 0 to 15 after injection min. Further, in test [2] (setting [19]), the Duration is recorded as at most 60 min and the “Maximum analgesic intensity (mean)” value amounted to 0.33 g.

Regarding `O=S(=O)([O-])[O-].[O]=[V+2]` [Solution G3, Vanadyl sulfate], in test [2] (setting [20]), the Duration was over 60 min and the “Maximum analgesic intensity (mean)” value is on record as about 0.46 g.

For the compound `Cc1occc(=O)c1[O-].Cc1occc(=O)c1[O-].[O]=[V+2]` [Solution H, bis(maltolato)oxovanadium (IV)], the Plateau dose in test [2] (mice, based on vanadium) is reported as at least 0.97 mg/kg.

`[Na+].[Na+].[Na+].[O]=[V]([O-])([O-])[O-]` [Solution A4, Sodium orthovanadate]: in test [2] (setting [21]), the Duration is under 60 min and the “Maximum analgesic intensity (mean)” value was about 0.30 g.

For `Cc1occc(=O)c1[O-].Cc1occc(=O)c1[O-].[O]=[V+2]` [Solution H2, bis(maltolato)oxovanadium (IV)], in test [2] (setting [22]), the Duration is on record as over 60 min and the “Maximum analgesic intensity (mean)” value was determined as 0.54 g.

As for `[Na+].[Na+].[Na+].[O]=[V]([O-])([O-])[O-]` [Solution A3, Sodium orthovanadate], the Onset time in test [1] (Example 4, intraperitoneal injection, A1 0.97, A2 0.19, A3 0.097 mg/kg (atomic mass of vanadium), 0.097 mg/kg) is 30 to 45 after injection min.

In the case of `[Na+].[Na+].[Na+].[O]=[V]([O-])([O-])[O-]` [Solution A1, Sodium orthovanadate], the Duration is over 60 min in test [1] (setting [23]); over 60 min in test [1] (Example 4, intraperitoneal injection, A1 0.97, A2 0.19, A3 0.097 mg/kg (atomic mass of vanadium)); over 60 min in test [2] (setting [24]). Moreover, the Onset time in test [1] (setting [23]) lay within 30 to 45 after injection min; in test [1] (Example 4, intraperitoneal injection, A1 0.97, A2 0.19, A3 0.097 mg/kg (atomic mass of vanadium), listed as A1) it was 30 to 45 after injection min. In addition, the “Time after injection” value in test [1] (setting [6]) is over 90 min. Also, in test [1] (setting [7]), the “Pain thresholds / analgesic intensity compared with the S (ASA, aspirin) group” value was “generally higher than those of the mice in the S group”. Further, in test [2] (setting [24]), the “Maximum analgesic intensity (mean)” value is given as about 0.55 g.
